Data reported in the supplement of paper PMC10307832.

Tests used:
Assay in all cases: relative viability (nuclei count vs DMSO), 5 days (fraction); higher = more cells survive
Dinaciclib + Bortezomib = compound: CCc1cnn2c(NCc3ccc[n+]([O-])c3)cc(N3CCCC[C@H]3CCO)nc12 [Dinaciclib] + CC(C)C[C@H](NC(=O)[C@H](Cc1ccccc1)NC(=O)c1cnccn1)B(O)O [Bortezomib] (partner 0.002 µM)
In short: (§1)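 Relative viability divides the nuclei count in treated wells by that in vehicle wells. Lung cancer cell lines were seeded in 1536-well plates, dosed by pin tool the next day, and fixed and stained after 5 days in one step with final 0.05% Triton X-100, 1% formaldehyde and 1 ug/ml Hoechst. Dosing was a single drug or a fixed anchor-drug dose plus five library-drug doses (not always all listed) in √10 steps, and values are medians of duplicate plates imaged at 4×.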

Dinaciclib + Navitoclax = compound: CCc1cnn2c(NCc3ccc[n+]([O-])c3)cc(N3CCCC[C@H]3CCO)nc12 [Dinaciclib] + CC1(C)CCC(c2ccc(Cl)cc2)=C(CN2CCN(c3ccc(C(=O)NS(=O)(=O)c4ccc(N[C@H](CCN5CCOCC5)CSc5ccccc5)c(S(=O)(=O)C(F)(F)F)c4)cc3)CC2)C1 [Navitoclax] (partner 0.5 µM)
In short: as §1

Dinaciclib + OSI-027 = compound: CCc1cnn2c(NCc3ccc[n+]([O-])c3)cc(N3CCCC[C@H]3CCO)nc12 [Dinaciclib] + COc1cccc2cc(-c3nc([C@H]4CC[C@H](C(=O)O)CC4)n4ncnc(N)c34)[nH]c12 [OSI-027] (partner 0.5 µM)
In short: as §1

Dinaciclib + Lapatinib = compound: CCc1cnn2c(NCc3ccc[n+]([O-])c3)cc(N3CCCC[C@H]3CCO)nc12 [Dinaciclib] + CS(=O)(=O)CCNCc1ccc(-c2ccc3ncnc(Nc4ccc(OCc5cccc(F)c5)c(Cl)c4)c3c2)o1 [Lapatinib] (partner 2 µM)
In short: as §1

Dinaciclib + Pictilisib = compound: CCc1cnn2c(NCc3ccc[n+]([O-])c3)cc(N3CCCC[C@H]3CCO)nc12 [Dinaciclib] + CS(=O)(=O)N1CCN(Cc2cc3nc(-c4cccc5[nH]ncc45)nc(N4CCOCC4)c3s2)CC1 [Pictilisib] (partner 1 µM)
In short: as §1

Cell Line	relative viability (Dinaciclib + Bortezomib; first compound 0.009487 µM)	relative viability (Dinaciclib + Bortezomib; first compound 0.03 µM)	relative viability (Dinaciclib + Bortezomib; first compound 0.09487 µM)	relative viability (Dinaciclib + Bortezomib; first compound 0.3 µM)	relative viability (Dinaciclib + Navitoclax; first compound 0.009487 µM)	relative viability (Dinaciclib + Navitoclax; first compound 0.03 µM)	relative viability (Dinaciclib + Navitoclax; first compound 0.09487 µM)	relative viability (Dinaciclib + Navitoclax; first compound 0.3 µM)	relative viability (Dinaciclib + OSI-027; first compound 0.009487 µM)	relative viability (Dinaciclib + OSI-027; first compound 0.03 µM)	relative viability (Dinaciclib + OSI-027; first compound 0.09487 µM)	relative viability (Dinaciclib + OSI-027; first compound 0.3 µM)	relative viability (Dinaciclib + Lapatinib; first compound 0.009487 µM)	relative viability (Dinaciclib + Lapatinib; first compound 0.03 µM)	relative viability (Dinaciclib + Lapatinib; first compound 0.09487 µM)	relative viability (Dinaciclib + Lapatinib; first compound 0.3 µM)	relative viability (Dinaciclib + Pictilisib; first compound 0.009487 µM)	relative viability (Dinaciclib + Pictilisib; first compound 0.03 µM)	relative viability (Dinaciclib + Pictilisib; first compound 0.09487 µM)	relative viability (Dinaciclib + Pictilisib; first compound 0.3 µM)
HCC-78	0.61	0.169	0.133	0.122	0.763	0.35	0.107	0.136	0.349	0.347	0.205	0.193	0.75	0.806	0.125	0.136	0.197	0.226	0.105	0.11
UMC-11	0.196	0.107	0.108	0.131	0.133	0.103	0.113	0.102	0.267	0.203	0.177	0.153	0.442	0.179	0.143	0.169	0.217	0.145	0.132	0.136
NCI-H1975	0.29	0.126	0.109	0.12	1.08	0.143	0.137	0.128	0.783	0.347	0.0912	0.0908	0.561	0.129	0.107	0.133	0.166	0.0983	0.102	0.102
COR-L23	0.646	0.0952	0.0792	0.0558	0.994	0.0863	0.066	0.0652	0.608	0.0953	0.0761	0.0902	0.688	0.0875	0.0701	0.0804	0.414	0.0756	0.0621	0.0547
CAL-12T	0.484	0.203	0.142	0.127	0.487	0.0619	0.0673	0.0743	0.235	0.136	0.118	0.124	0.323	0.171	0.179	0.149	0.201	0.105	0.122	0.116
SW 1573	0.777	0.104	0.0824	0.0954	0.919	0.0461	0.0459	0.0437	0.372	0.0612	0.0644	0.0645	1.25	0.575	0.0951	0.0867	0.452	0.225	0.0748	0.064
NCI-H2126	1.06	0.973	0.524	0.208	0.868	0.607	0.221	0.197	0.784	0.381	0.251	0.204	0.784	0.354	0.204	0.231	0.474	0.246	0.198	0.199
